Each structure is given as a SMILES string. Where only a bound is given, the exact number is not on record here.

This assay concerns HCV replicon. As to the kind of experiment: HCV replicon replication assay (NPT ELISA) in Huh-7 replicon-containing cells. In kind it is cell-based. Conditions: Hepatitis C virus, 72 h; HCV replicon in Huh-7 cells, three days incubation; read-out: EC50. How it is done: Compounds claimed herein are tested for the ability to inhibit viral replication of the Hepatitis C replicon in cultured cells in which the HCV replicon construct has been incorporated. The HCV replicon system was described by Bartenschlager, et. al (Science, 285, pp. 110-113 (1999)). The replicon system is predictive of in vivo anti-HCV activity; compounds that are active in humans uniformly evidence activity in the replicon assay.
In this assay HCV replicon containing cells are treated with different concentrations of the test compound to ascertain the ability of the test compound to suppress replication of the HCV replicon. As a positive control, HCV replicon-containing cells are treated with different concentrations of interferon alpha, a known inhibitor of HCV replication. The replicon assay system includes Neomycin Phosphotransferase (NPT) as a component of the replicon itself in order to detect the transcription of replicon gene products in the host cell. Cells in which the HCV replicon is actively replicating have high levels of NPT; the level of NPT is proportional to HCV replication. […] The NPT level of each sample is measured using a captured ELISA.
A protocol for testing compounds for the ability to inhibit viral replication of the Hepatitis C replicon cultured cells in which the replicon construct has been incorporated, follows.
The HCV replicon contains, 5′-3′, the HCV-IRES, the neomycin phosphotransferase (neo) gene, the IRES of encephalomyocarditis virus, which directs translation of HCV sequences NS3 to NS5B, and the 3′-NTR. The sequence of the HCV replicon has been deposited in GenBank (Accession no. AJ242652).
The replicon is transfected into Huh-7 cells using standard methods such as electroporation.
The equipment and materials include, but are not limited to, Huh-7 HCV replicon-containing cells, maintenance media (DMEM (Dulbecco's modified Eagle media) supplemented with 10% FBS, L-glutamine, non-essential amino acids, penicillin (100 units/ml), streptomycin (100 micrograms/ml), and 500 micrograms/ml of Geneticin (G418), screening media (DMEM supplemented with 10% FBS, L-glutamine, non-essential amino acids, penicillin (100 units/ml) and streptomycin (100 micrograms/ml)), 96 well tissue culture plates (flat bottom), 96 well plates (U bottom for drug dilution), Interferon alpha for positive control, fixation reagent (such as methanol: acetone), primary antibody (rabbit anti-NPTII), secondary antibody: Eu-N1 l, and enhancement solution.
HCV replicon-containing cells support high levels of viral RNA replicon replication when their density is suitable. Over-confluency causes decreased viral RNA replication. Therefore, cells must be kept growing in log phase in the presence of 500 micrograms/ml of G418. Generally, cells should be passed twice a week at 1: 4-6 dilution. Cell maintenance is conducted as follows:
HCV replicon-containing cells are examined under a microscope to ensure that cells growing well. Cells are rinsed once with PBS and 2 ml trypsin is added. The cell/trypsin mixture is incubated at 37° C. in a CO2 incubator for 3-5 minutes. After incubation 10 ml of complete media is added to stop the trypsinization reaction. Cells are blown gently, put into a 15 ml tube, and spun at 1200 rpm for 4 minutes. The trypsin/medium solution is removed. Medium (5 ml) is added and the cells are mixed carefully. The cells are counted.
The cells are then seeded onto 96-well plates at a density of 6000-7500 cells/100 microliters/well (6-7.5×10^5 cells/10 ml/plate). The plates are then incubated at 37° C. in a 5% CO2 incubator.
Cells are examined under a microscope approximated 24 hours after seeding and prior to adding drugs. If counting and dilution were performed correctly, cells are 60-70% confluent and nearly all cells should attach and spread evenly in the well.
HCV replicon-containing cells are rinsed with once PBS once; 2 mls of trypsin are then added. Cells are incubated at 37° C. in a 5% CO2 incubator for 3-5 minutes. […]
On the technique in general: A replicon is a self-replicating genome or part of one, used to study replication in cells.
A word on the EC50: it is the concentration needed to bring the measured effect to its halfway point. In the case of `C=CC1C[C@]1(NC(=O)[C@@H]1C[C@@H](Oc2cc(-c3ccccc3)nc3cc(OC)ccc23)CN1C(=O)[C@@H](CC(=O)N1CCCC(C(=O)OCC)C1)C(C)(C)C)C(=O)NS(=O)(=O)C1CC1` (stereo partly drawn) [Compound 160, ethyl 1-((S)-3-((2S,4R)-2-((1R,2S)-1-(cyclopropyl-sulfonylcarbamoyl)-2-vinylcyclopropyl-carbamoyl)-4-(7-methoxy-2-phenylquinolin-4-yloxy)pyrrolidine-1-carbonyl)-4,4-dime-thylpentanoyl)piper-idine-3-carboxylate], the half-maximal effective concentration (EC50) was less than 1 µM.
To `C=C[C@@H]1C[C@]1(NC(=O)[C@@H]1C[C@@H](Oc2cc(-c3ccccc3)nc3c(C)c(OC)ccc23)CN1C(=O)[C@@H](CC(=O)N1CCCC(F)(F)C1)C(C)(C)C)C(=O)NS(=O)(=O)C1CC1` [Compound 241, (2S,4R)-1-((S)-2-tert-butyl-4-(3,3-difluoropiperidin-1-yl)-4-oxobutanoyl)-N-((2S)-1-(cyclopropyl-sulfonylcarbamoyl)-2-vinylcyclopropyl)-4-(7-methoxy-8-methyl-2-phenylquinolin-4-yloxy)pyrrolidine-2-carboxamide] belongs less than 1 µM.
As for `CC(C)(C)[C@H](CC(=O)N1CCCCC1)C(=O)N1C[C@H](n2cnc3ccccc32)C[C@H]1C(=O)NCC(=O)NS(=O)(=O)C1CC1` [Compound 127, (2S,4R)-4-(1H-benzo[d]imidazol-1-yl)-1-((S)-2-tert-butyl-4-oxo-4-(piperidin-1-yl)butanoyl)-N-(2-(cyclopropane-sulfonamido)-2-oxoethyl)pyr-rolidine-2-carboxamide], the figure is 1 to 10 µM.
As to `C=C[C@@H]1C[C@]1(NC(=O)[C@@H]1C[C@@H](Oc2cc(-c3ccccn3)nc3c4c(ccc23)OCC4)CN1C(=O)[C@@H](CC(=O)N1CCOCC1)C(C)(C)C)C(=O)NS(=O)(=O)C1CC1` [Compound 153, (2S,4R)-1-((S)-2-tert-butyl-4-morpholino-4-oxobutanoyl)-N-((1R,2S)-1-(cyclo-propylsulfonyl-carbamoyl)-2-vinylcyclopropyl)-4-(2-(pyridin-2-yl)-8,9-dihydrofuro[2,3-h]quinolin-4-yloxy)pyrrolidine-2-carboxamide], the concentration giving a half-maximal response (EC50) is less than 1 µM.
Take `C=C[C@@H]1C[C@]1(NC(=O)[C@@H]1C[C@@H](Oc2cc(-c3ccccn3)nc3c(Cl)c(OC)ccc23)CN1C(=O)[C@@H](CC(=O)N1CCC(F)(F)C1)C(C)(C)C)C(=O)NS(=O)(=O)C1CC1` [Compound 206, (2S,4R)-1-((S)-2-tert-butyl-4-(3,3-difluoropyrrolidin-1-yl)-4-oxobutanoyl)-4-(8-chloro-7-methoxy-2-(pyridin-2-yl)quinolin-4-yloxy)-N-((1R)-1-(cyclopropylsulfonyl-carbamoyl)-2-vinylcyclopropyl)pyr-rolidine-2-carboxamide]: the concentration giving a half-maximal response (EC50) is less than 1 µM.
As for `C=C[C@@H]1C[C@]1(NC(=O)[C@@H]1C[C@@H](Oc2cc(-c3ccccc3)nc3ccccc23)CN1C(=O)[C@@H](CC(=O)N1CCCCC1)C(C)(C)C)C(=O)NS(=O)(=O)C1CC1` [Compound 225, (2S,4R)-1-((S)-2-tert-butyl-4-oxo-4-(piperidin-1-yl)butanoyl)-N-((1R)-1-(cyclopropyl-sulfonylcarbamoyl)-2-vinylcyclopropyl)-4-(2-phenylquinolin-4-yloxy)pyrrolidine-2-carboxamide], the figure is less than 1 µM.
To `C=CC1C[C@]1(NC(=O)[C@@H]1C[C@@H](Oc2cc(-c3ccccc3)nc3cc(OC)ccc23)CN1C(=O)[C@@H](CC(=O)N1CCCC(C(F)(F)F)C1)C(C)(C)C)C(=O)NS(=O)(=O)C1CC1` (stereo partly drawn) [Compound 162, (2S,4R)-1-((2S)-2-tert-butyl-4-oxo-4-(3-(trifluoromethyl)pi-peridin-1-yl)butanoyl)-N-((1R,2S)-1-(cyclopropylsulfonyl-carbamoyl)-2-vinylcyclopropyl)-4-(7-methoxy-2-phenylquinolin-4-yloxy)pyrrolidine-2-carboxamide] belongs less than 1 µM; to `C=C[C@@H]1C[C@]1(NC(=O)[C@@H]1C[C@@H](Oc2cc(-c3ccccc3)nc3cc(OC)ccc23)CN1C(=O)[C@@H](CC(=O)N1CCC(CNC(=O)OC(C)(C)C)CC1)C(C)(C)C)C(=O)NS(=O)(=O)C1CC1` [Compound 76, tert-butyl (1-((S)-3-((2S,4R)-2-((1R,2S)-1-(cyclopropylsulfonyl-carbamoyl)-2-vinylcyclopropyl-carbamoyl)-4-(7-methoxy-2-phenylquinolin-4-yloxy)pyrrolidine-1-carbonyl)-4,4-dimethylpentano-yl)piperidin-4-yl)methylcarbamate], less than 1 µM.
To `C=C[C@@H]1C[C@]1(NC(=O)[C@@H]1C[C@@H](Oc2cc(-c3ccccc3)nc3cc(OC)ccc23)CN1C(=O)[C@@H](CC(=O)N1CCCCC1)C(C)(C)C)C(=O)NS(=O)(=O)c1ccc(C)cc1` [Compound 69, (2S,4R)-1-((S)-2-tert-butyl-4-oxo-4-(piperidin-1-yl)butanoyl)-4-(7-methoxy-2-phenylquinolin-4-yloxy)-N-((1R,2S)-1-(p-tolylsulfonyl-carbamoyl)-2-vinyl-cyclopropyl)pyr-rolidine-2-carboxamide] belongs less than 1 µM; to `C=C[C@@H]1C[C@]1(NC(=O)[C@@H]1C[C@@H](Oc2cc(-c3nc(C(C)C)cs3)nc3cc(OC)ccc23)CN1C(=O)[C@@H](CC(=O)N1CCCC(F)(F)C1)C(C)(C)C)C(=O)NS(=O)(=O)C1CC1` [Compound 251, (2S,4R)-1-((S)-2-tert-butyl-4-(3,3-difluoropiperidin-1-yl)-4-oxobutanoyl)-N-((2S)-1-(cyclopropyl-sulfonylcarbamoyl)-2-vinylcyclopropyl)-4-(2-(4-isopropylthiazol-2-yl)-7-methoxyquinolin-4-yloxy)pyrrolidine-2-carboxamide], less than 1 µM.
`C=C[C@@H]1C[C@]1(NC(=O)[C@@H]1C[C@@H](Oc2cc(-c3ccccc3)nc3cc(OC)ccc23)CN1C(=O)[C@@H](CC(=O)N1CCC2(CC1)OCCO2)C(C)(C)C)C(=O)NS(=O)(=O)C1CC1` [Compound 75, (2S,4R)-1-((2S)-2-tert-butyl-4-oxo-4-(1,4-dioxa-8-azaspiro[4.5]decan-8-yl)butanoyl)-N-((1R,2S)-1-(cyclopropylsulfonyl-carbamoyl)-2-vinylcyclopropyl)-4-(7-methoxy-2-phenylquinolin-4-yloxy)pyrrolidine-2-carboxamide]: the EC50 was less than 1 µM.
To `C=C[C@@H]1CC1(NC(=O)[C@@H]1C[C@@H](Oc2cc(-c3nc(C(C)C)cs3)nc3c(C)c(OC)ccc23)CN1C(=O)[C@@H](CC(=O)N1CCC(C(F)(F)F)CC1)C(C)(C)C)C(=O)NS(=O)(=O)C1CC1` (stereo in doubt) [Compound 250, (2S,4R)-1-((S)-2-tert-butyl-4-oxo-4-(4-(trifluoro-methyl)piperidin-1-yl)butanoyl)-N-((S)-1-(cyclopropyl-sulfonylcarbamoyl)-2-vinylcyclopropyl)-4-(2-(4-isopropylthiazol-2-yl)-7-methoxy-8-methylquinolin-4-yloxy)pyrrolidine-2-carboxamide] belongs less than 1 µM; to `C=C[C@@H]1C[C@]1(NC(=O)[C@@H]1C[C@@H](Oc2nc(-c3ccccn3)cc3c(Cl)c(OC)ccc23)CN1C(=O)[C@@H](CC(=O)N1CCCC(F)(F)C1)C(C)(C)C)C(=O)NS(=O)(=O)C1CC1` [Compound 244, (2S,4R)-1-((S)-2-tert-butyl-4-(3,3-difluoropiperidin-1-yl)-4-oxobutanoyl)-4-(5-chloro-6-methoxy-3-(pyridin-2-yl)isoquinolin-1-yloxy)-N-((2S)-1-(cyclopropyl-sulfonylcarbamoyl)-2-vinylcyclo-propyl)pyrrolidine-2-carboxamide], less than 1 µM.

(Values after patent publication US9133115B2 (ACHILLION PHARMACEUTICALS, INC., priority 2008, dated 2015).)
